Source: patent publication EP1724268A1, “COMPOUND HAVING TGF-BETA INHIBITORY ACTIVITY AND PHARMACEUTICAL COMPOSITION CONTAINING SAME” (KIRIN BEER KABUSHIKI KAISHA, priority 2004, dated 2005)
Where two headings read alike, the source gives them in different places.

Test system: TGFβ signal
Test: TGFβ signal inhibitory activity, (SBE)4-Luc reporter in A549 cells (Test Examples 1A and 1B)
Format: cell-based, human
Conditions: Homo sapiens
Summary of the method: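 Stable A549 line carrying (SBE)4-Luc Smad3-binding reporter treated with compound plus TGFβ-1 (2 ng/ml) for 4 hr; luciferase read by chemiluminescence. Percent inhibition relative to TGFβ-only and untreated cells, tested at 3 µM and 10 µM, some also at 1 µM.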

[1] = A549, test compound 3 µM, TGFβ-1 2 ng/ml, 4 hr, Table 1A, read-out: TGFβ inhibition rate, %
[2] = A549, test compound 10 µM, TGFβ-1 2 ng/ml, 4 hr, Table 1A, read-out: TGFβ inhibition rate, %
[3] = A549, test compound 3 µM, Reference Examples, Table 1B, read-out: TGFβ inhibition rate, %
[4] = A549, test compound 10 µM, Reference Examples, Table 1B, read-out: TGFβ inhibition rate, %
[5] = A549, 3 µM, compounds of Reference Examples (Test Example 1B), read-out: TGFβ inhibition rate, %
[6] = A549, 10 µM, compounds of Reference Examples (Test Example 1B), read-out: TGFβ inhibition rate, %
[7] = A549, read-out: TGFβ inhibition rate, %

| Compound | inhibition at 3 µM [1] [%] | inhibition at 3 µM [5] [%] | inhibition at 10 µM [6] [%] | other results |
| --- | --- | --- | --- | --- |
| Fc1cc2nccc(Oc3cc4cccnc4nc3-c3ccccc3)c2c(F)c1F [Compound 102, 2-Phenyl-3-(5,6,7-trifluoro-quinolin-4-yloxy)-[1,8]naphthyridine] | 45 | – | – | inhibition at 10 µM [2]: 92% |
| CCOC(=O)c1ccc(C)cc1Oc1ccnc2cc(OC)c(OC)cc12 [Compound r82] | – | – | – | inhibition at 3 µM [3]: 90%; inhibition at 10 µM [4]: 99% |
| COc1cc2c(Oc3cc4ccccc4nc3C)ccnc2cc1OCCN1C(=O)c2ccccc2C1=O [Compound r367] | – | 95 | 98 | – |
| COc1cc2c(Oc3cc(C)c(C)nc3-c3ccc(C)cn3)ccnc2cc1OCC1CO1 (stereo not shown) [Compound r457] | – | 97 | 100 | – |
| COc1cc2nccc(Oc3ccc(C)nc3C(OC(C)=O)c3cccc(C)n3)c2cc1OC (stereo not shown) [Compound r219] | – | 20 | 67 | – |
| COc1cc2nccc(Oc3ccc4oc(=O)cc(C)c4c3)c2cc1OC [r306] | – | 20 | 53 | – |
| COc1cc2c(Oc3cc(C)c(C)nc3-c3cccnc3)ccnc2cc1OCC(CO)CO [Compound r350] | – | 96 | – | – |
| COc1ccc(Oc2ccnc3cc(OC)c(OC)cc23)c(C(C)=O)c1 [r177] | – | – | – | inhibition at 3 µM [7]: 94% |
| CCc1ccc(Oc2ccnc3cc(OC)c(OC)cc23)c(C(C)=O)c1 [r172] | – | 82 | 99 | – |
| Cc1cc(Oc2ccnc3ccc(-c4cccnc4)cc23)c(-c2ccccn2)nc1C [Compound 6, 5,6-Dimethyl-3-(6-pyridin-3-yl-quinolin-4-yloxy)-[2,2']bipyridine] | 100 | – | – | inhibition at 10 µM [2]: 100% |
| COc1cc2nccc(Oc3cc4ccncc4cc3C)c2cc1OC [Compound r300, 6,7-Dimethoxy-4-(7-methyl-isoquinolin-6-yloxy)-quinoline] | – | 9 | 63 | – |
| COc1cc2nccc(Oc3cc4cccnc4nc3-c3ccncc3)c2cc1OC [Compound 89, 3-(6,7-Dimethoxy-quinolin-4-yloxy)-2-pyridin-4-yl-[1,8]naphthyridine] | 36 | – | – | inhibition at 10 µM [2]: 77% |
| COc1cc2nccc(Oc3ccc(C)cc3-c3ccccn3)c2cc1OC [r167] | – | 98 | 100 | – |
| COc1cc2nccc(Oc3c(C)nc4ccccc4c3Br)c2cc1OC [r291] | – | 14 | 78 | – |
| CCC(=O)c1ccc(OCc2ccccc2)cc1Oc1ccnc2cc(OC)c(OC)cc12 [Compound r45] | – | – | – | inhibition at 3 µM [3]: 0%; inhibition at 10 µM [4]: 67% |
| COc1cc2c(Oc3ccc(C)cc3C(=O)c3ccccc3)ccnc2cc1OCCCN1CCOCC1 [r139] | – | – | – | inhibition at 3 µM [3]: 99%; inhibition at 10 µM [4]: 100% |
| Cc1ccc(-c2ccc3nccc(Oc4cc(C)c(C)nc4-c4ccccn4)c3c2)cc1 [Compound 8, 5,6-Dimethyl-3-(6-p-tolyl-quinolin-4-yloxy)-[2,2']bipyridine] | 60 | – | – | inhibition at 10 µM [2]: 100% |
| COc1cc2nccc(Oc3cc4cccnc4nc3C)c2cc1OC [Compound r310] | – | 72 | 97 | – |
| COc1cc2c(Oc3cc(C)c(C)cc3C(C)=O)ccnc2cc1OCCN1CCOCC1 [Compound r316] | – | 99 | 100 | – |
| CO/N=C(\C)c1cc(C)c(C)cc1Oc1ccnc2cc(OC)c(OC)cc12 [r196] | – | 41 | 83 | – |
| COc1cc2nccc(Oc3cc4cccnc4nc3-c3ccc(C)cc3)c2cc1OC [r428] | – | 67 | – | – |
| Cc1ccc(Oc2ccnc3ccc(OCCCN(C)CCO)cc23)c(-c2ncccn2)n1 [Compound 211, 2-(Methyl-{3-[4-(6-methyl-2-pyrimidin-2-yl-pyridin-3-yloxy)-quinolin-6-yloxy]-propyl}-amino)-ethanol] | 54 | – | – | – |
| COc1cc2c(Oc3cc(C)c(C)nc3-c3ccccn3)ccnc2cc1OCc1ccccc1 [Compound r337] | – | 98 | – | – |
| COc1cc2nccc(Oc3cc4cc(F)ccc4nc3-c3ccccc3)c2cc1OC [r292] | – | 86 | 100 | – |
| Cc1ccc(Oc2ccnc3ccc(OCCCN4CCC(Cc5ccccc5)CC4)cc23)c(-c2ncccn2)n1 [Compound 220, 6-[3-(4-Benzyl-piperidin-1-yl)-propoxy]-4-(6-methyl-2-pyrimidin-2-yl-pyridin-3-yloxy)-quinoline] | 91 | – | – | inhibition at 10 µM [2]: 100% |
| Cc1cc(Oc2ccnc3cc(-c4ccsc4)ccc23)c(-c2ccccn2)nc1C [Compound 171, 5,6-Dimethyl-3-(7-thioahen-3-yl-quinolin-4-yloxy)-[2,2']bipyridine] | 100 | – | – | inhibition at 10 µM [2]: 100% |

| Compound | inhibition at 3 µM [1] [%] | inhibition at 3 µM [5] [%] | inhibition at 10 µM [6] [%] | other results |
| --- | --- | --- | --- | --- |
| CCN(CC)CC(O)COc1cc2nccc(Oc3ccc(C)cc3C(=O)c3ccccc3)c2cc1OC (stereo not shown) [r153] | – | – | – | inhibition at 3 µM [3]: 100%; inhibition at 10 µM [4]: 100% |
| COc1cc2nccc(Oc3ccc(C)cc3C(=O)c3ccccc3)c2cc1OC [r72] | – | – | – | inhibition at 3 µM [7]: 98% |
| Cc1cc(Oc2ccnc3ccc(-c4ccc(O)cc4)cc23)c(-c2ccccn2)nc1C [Compound 12, 4-[4-(5,6-Dimethyl-[2,2']bipyridin-3-yloxy)-quinolin-6-yl]-phenol] | 100 | – | – | inhibition at 10 µM [2]: 100% |
| COc1cc2nccc(Oc3ccc(Cl)cc3C(N)=O)c2cc1OC [Compound r106] | – | – | – | inhibition at 3 µM [3]: 9%; inhibition at 10 µM [4]: 80% |
| COc1cc2c(Oc3cc4ccccc4nc3C)ccnc2cc1OCCCO [Compound r382] | – | 100 | 100 | – |
| COc1cc2c(Oc3cc4ccccc4nc3C)ccnc2cc1OCCCN [Compound r376] | – | 100 | 100 | – |
| CCc1ccc(Oc2ccnc3cc(C(N)=O)c(OCc4ccccc4)cc23)c(-c2ncccn2)n1 [Compound 193, 6-Benzyloxy-4-(6-ethyl-2-pyrimidin-2-yl-pyridin-3-yloxy)-quinoline-7-carboxylic acid amide] | 80 | – | – | – |
| COc1cc2nccc(Oc3ccc4ncccc4c3)c2cc1OC [r24] | – | – | – | inhibition at 3 µM [3]: 66%; inhibition at 10 µM [4]: 91% |
| COc1cc2nccc(Oc3cc(C)c(C)nc3-c3ncccc3C)c2cc1OC [r429] | – | 52 | 94 | – |
| Cc1cc(Oc2ccnc3ccc(Cl)cc23)c(-c2ccccn2)nc1C [Compound 156, 3-(6-Chloro-quinolin-4-yloxy)-5,6-dimethyl-[2,2']bipyridine] | 100 | – | – | inhibition at 10 µM [2]: 100% |
| CCCNC(=O)NCCOc1ccc2nccc(Oc3ccc(CC)nc3-c3ccccn3)c2c1 [Compound 189, 1-{2-[4-(6-Ethyl-[2,2']bipyridinyl-3-yloxy)-quinolin-6-yloxy]-ethyl}-3-propyl-urea] | 97 | – | – | inhibition at 10 µM [2]: 99% |
| COc1cc2c(Oc3cc4cccnc4nc3-c3ccccc3)ccnc2cc1C [Compound 62, 3-(6-Methoxy-7-methyl-quinolin-4-yloxy)-2-phenyl-[1,8]naphthyridine] | 99 | – | – | inhibition at 10 µM [2]: 100% |
| Cc1cc(Oc2ccnc3cc(Cl)c(Cl)cc23)c(-c2ccccn2)nc1C [Compound 131, 3-(6,7-Dichloro-quinolin-4-yloxy)-5,6-dimethyl-[2,2']bipyridine] | 99 | – | – | inhibition at 10 µM [2]: 100% |
| COc1cc2nccc(Oc3cc4cncnc4cc3C)c2cc1OC [Compound r305, 6-(6,7-Dimethoxy-quinolin-4-yloxy)-7-methyl-quinazoline] | – | 28 | 64 | – |
| Cc1cc(Oc2ccnc3cc(-c4cccc(N)c4)ccc23)c(-c2ccccn2)nc1C [Compound 21, 3-[4-(5,6-Dimethyl-[2,2']bipyridin-3-yloxy)-quinolin-7-yl]-phenylamine] | 99 | – | – | inhibition at 10 µM [2]: 100% |
| CCCc1ccc(Oc2ccnc3cc(OC)c(OC)cc23)c(C(C)=O)c1 [r173] | – | 83 | 100 | – |
| COc1ccc(C(=O)c2ccccc2)c(Oc2ccnc3cc(OC)c(OC)cc23)c1 [Compound r64] | – | – | – | inhibition at 3 µM [3]: 67%; inhibition at 10 µM [4]: 98% |
| COc1cc2nccc(Sc3ccc4ccccc4n3)c2cc1OC [r420] | – | 2 | 62 | – |
| COc1cc2nccc(Oc3cccc4ccccc34)c2cc1OC [Compound r16] | – | – | – | inhibition at 3 µM [3]: 0%; inhibition at 10 µM [4]: 62% |
| COc1cc2nccc(Oc3ccc(C)nc3-c3cccc(NC(C)=O)c3)c2cc1OC [Compound r236] | – | 90 | 100 | – |
| COc1cc2c(Oc3ccc(C)cc3C(=O)c3ccccc3)ccnc2cc1OCCCCNCCO [r142] | – | – | – | inhibition at 3 µM [3]: 100%; inhibition at 10 µM [4]: 100% |
| COc1cc2nccc(Oc3cc(C)c(C)nc3-c3ccccn3)c2cc1NCCO [Compound 154, 2-[4-(5,6-Dimethyl-[2,2']bipyridinyl-3-yloxy)-7-methoxy-quinolin-6-ylamino]-ethanol] | 99 | – | – | inhibition at 10 µM [2]: 100% |
| CCCCc1ccc(Oc2ccnc3cc(OC)c(OC)cc23)c(C(C)=O)c1 [r174] | – | 57 | 96 | – |
| Cc1cc(Oc2ccnc3cccnc23)c(-c2ccccn2)nc1C [Compound 30, 4-(5,6-Dimethyl-[2,2']bipyridin-3-yloxy)-[1,5]naphthyridine] | 84 | – | – | inhibition at 10 µM [2]: 99% |
| COc1cc2ncnc(Oc3cc4cccnc4nc3-c3ccccc3)c2cc1OC [r436] | – | 99 | 100 | – |
| COc1cc2nccc(Oc3cc4ccccc4nc3C(=O)c3ccccc3)c2cc1OC [r279] | – | 98 | 100 | – |
